Reference: PubChem BioAssay (NCI)
“And” between values parts separate entries of the source, which are not always exact repeats. Equal entries are not always repeated.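 Protocol summary: plate cells (96-well), add compound at 5 concentrations, incubate 48 h, interpolate endpoints linearly. GI50: concentration for 50% inhibition of growth. Definition used: TGI = concentration required for complete inhibition of growth.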

Assays:
Assay in all cases: NCI tumour cell line growth inhibition, 48 h
[1] = tested on: A498 renal
[2] = tested on: COLO 205 colon
[3] = tested on: DMS 273 small cell lung
[4] = tested on: K-562 leukemia
[5] = tested on: LXFL 529 NSCLC
[6] = tested on: NCI-H23 lung
[7] = tested on: SNB-75 CNS
[8] = tested on: SR leukemia
[9] = tested on: CCRF-CEM leukemia
[10] = tested on: BT-549 breast

Row | Compound | TGI [1] | TGI [2] | TGI [3] | TGI [4] | TGI [5] | TGI [6] | TGI [7] | TGI [8] | TGI [9] | GI50 [1] | GI50 [9] | GI50 [2] | GI50 [3] | GI50 [4] | GI50 [5] | GI50 [6] | GI50 [7] | GI50 [8] | GI50 [10] | TGI [10]
1 | O=C(Cc1nc2ccccc2o1)C(=O)Nc1ccc(Cl)cc1Cl | > 100 µM | > 100 µM | > 100 µM | > 100 µM | > 100 µM | > 100 µM | > 100 µM | 51.6 µM |  |  |  |  |  |  |  |  |  |  |  | 
2 | Cc1cc(C)c(/C=N/NS(=O)(=O)c2ccccc2)c(C)c1 | > 100 µM | > 100 µM | > 100 µM | > 100 µM | > 100 µM | > 100 µM | > 100 µM | > 100 µM | > 100 µM |  |  |  |  |  |  |  |  |  |  | 
3 | Cc1ccccc1-n1c(CCl)nc2ccc(Br)cc2c1=O | 60.8 µM | 26.4 µM | > 100 µM |  | 18.5 µM | 25.3 µM | 29 µM | > 24.9 µM | 4.78 µM |  |  |  |  |  |  |  |  |  |  | 
4 | Cc1cc(C)nc(NS(=O)(=O)c2ccc(NC(=O)COC(=O)c3cccc4c(=O)c5ccccc5[nH]c34)cc2)n1 | > 100 µM | > 100 µM | > 100 µM | 98.8 µM | > 100 µM | > 100 µM | 73.5 µM | 76.4 µM | 87.7 µM |  |  |  |  |  |  |  |  |  |  | 
5 | CC1=C(C(=O)Nc2ccc(C)cc2)C(c2cccc([N+](=O)[O-])c2)C(C(=O)Nc2ccc(C)cc2)=C(C)N1 | 55.3 µM | 28.1 µM | > 100 µM | 63.5 µM | > 100 µM | 70.4 µM | 81.4 µM | 65.6 µM | 50.7 µM |  |  |  |  |  |  |  |  |  |  | 
6 | CC[As](CC)SCC1OC(OC(C)=O)C(OC(C)=O)C(OC(C)=O)C1OC(C)=O (stereo not drawn) | 38.9 µM | 10 µM | 29.4 µM | 14 µM | 3.77 µM | 36.4 µM | 52.7 µM | 75.4 µM | 18.4 µM |  |  |  |  |  |  |  |  |  |  | 
7 | COC(=O)C(C(=O)C(=O)Nc1ccccc1C)c1nc2ccc([N+](=O)[O-])cc2[nH]c1=O (stereo not drawn) | > 100 µM | > 100 µM | > 100 µM | > 100 µM | > 100 µM | > 100 µM | > 100 µM | > 100 µM | > 100 µM |  |  |  |  |  |  |  |  |  |  | 
8 | Fc1ccc(N=C2C=CC(=Nc3ccc(F)cc3)c3ccccc32)cc1 | > 100 µM | > 100 µM | > 100 µM | > 100 µM | > 100 µM | > 100 µM | > 100 µM | > 100 µM | > 100 µM |  |  |  |  |  |  |  |  |  |  | 
9 | CN1C2(c3ccccc3)C(C(=O)c3ccccc3)=C(C(=O)c3ccccc3)C1(c1ccccc1)c1c(-c3ccccc3)sc(-c3ccccc3)c12 | > 100 µM | > 100 µM | > 100 µM | > 100 µM | > 100 µM | > 100 µM | > 100 µM | > 100 µM | > 100 µM |  |  |  |  |  |  |  |  |  |  | 
10 | CSC1=Nc2ccccc2N=C(c2ccccc2)C1 | > 100 µM | 51.8 µM | > 100 µM | > 100 µM | > 100 µM | > 100 µM | > 100 µM | > 100 µM | 58.9 µM |  |  |  |  |  |  |  |  |  |  | 
11 | CC(=O)O[C@@H]1CC[C@@]2(C)C(=O)C34C[C@@]5(C)C([C@@H](C)CCCC(C)C)CCC5(C)[C@](O)(O3)C(=O)[C@H]4C2C1(C)C (stereo partly drawn) | 38.5 µM | 27.8 µM | 27.2 µM | 29.9 µM | 30.4 µM | 27.4 µM | 29.6 µM | 35.2 µM | 19.8 µM |  |  |  |  |  |  |  |  |  |  | 
12 | [CH3][Hg]/[N]=C(/N)NC#N | 31.7 µM | 3.09 µM | 27.5 µM | > 100 µM | 3.08 µM | 24.5 µM | 24.4 µM | 39.9 µM | > 100 µM | 17.7 µM | 3650 nM | 1710 nM | 13.5 µM | 1690 nM | 1430 nM | 10.2 µM | 12.1 µM | 4390 nM |  | 
13 | N#CCCN(c1ccc(C=O)cc1)S(=O)(=O)c1ccccc1 | > 100 µM |  | > 100 µM | > 100 µM | > 100 µM |  | > 100 µM | > 100 µM |  |  |  |  |  |  |  |  |  |  |  | 
14 | COc1ccc([C@@H]2OC(=O)C3C2C(=O)O[C@H]3c2ccc(OC)cc2)cc1 (stereo partly drawn) | > 100 µM | > 100 µM | > 100 µM | > 100 µM | > 100 µM | > 100 µM | > 100 µM | > 100 µM | > 100 µM |  |  |  |  |  |  |  |  |  |  | 
15 | CC1[C@@H]2CC=C3[C@H]4CCC5Cc6nc7c(nc6C[C@@]5(C)C4CC(=O)[C@]32CO[C@]12OC(C)(C)CC2O)CC1CC[C@@H]2C3=C[C@H]4O[C@@]5(O[C@@](C)(CO)C[C@@H]5O)C(C)[C@@]4(O)[C@]3(C)[C@@H](O)CC2[C@]1(C)C7 (stereo partly drawn) | 0.0187 µM and 0.0124 µM | 0.00721 µM and 0.0301 µM | 0.000328 µM and 0.000802 µM | 0.0278 µM and 0.0311 µM | 0.00244 µM | 0.275 µM and 0.0672 µM |  | 0.00856 µM | 0.0114 µM and 0.00453 µM | 0.000721 µM | 0.309 nM and 0.365 nM | 2.17 nM and 8.57 nM | 0.000365 µM | 0.615 nM and 1.11 nM | 0.384 nM | 0.00281 µM | 0.000365 µM | 0.181 nM | 0.751 nM | 363 nM
16 | CC(=O)Nc1ccc(C2=N/C(=C\c3ccc(Cl)cc3)C(=O)O2)cc1 | > 100 µM | > 100 µM | > 100 µM | 51.8 µM | 56.9 µM | > 100 µM | > 100 µM | 61.2 µM | 71.7 µM |  |  |  |  |  |  |  |  |  |  | 
